According to ChEMBL document CHEMBL1955725, “Structure-guided lead optimization of triazolopyrimidine-ring substituents identifies potent Plasmodium falciparum dihydroorotate dehydrogenase inhibitors with clinical candidate potential” (J Med Chem, 2011):
In brackets after ≈: the same amount, converted by molar mass.

Tests used:
[1] = target: T1, Dihydroorotate dehydrogenase (Plasmodium falciparum, UniProt Q54A96)
T1 sequence (Q54A96 whole entry): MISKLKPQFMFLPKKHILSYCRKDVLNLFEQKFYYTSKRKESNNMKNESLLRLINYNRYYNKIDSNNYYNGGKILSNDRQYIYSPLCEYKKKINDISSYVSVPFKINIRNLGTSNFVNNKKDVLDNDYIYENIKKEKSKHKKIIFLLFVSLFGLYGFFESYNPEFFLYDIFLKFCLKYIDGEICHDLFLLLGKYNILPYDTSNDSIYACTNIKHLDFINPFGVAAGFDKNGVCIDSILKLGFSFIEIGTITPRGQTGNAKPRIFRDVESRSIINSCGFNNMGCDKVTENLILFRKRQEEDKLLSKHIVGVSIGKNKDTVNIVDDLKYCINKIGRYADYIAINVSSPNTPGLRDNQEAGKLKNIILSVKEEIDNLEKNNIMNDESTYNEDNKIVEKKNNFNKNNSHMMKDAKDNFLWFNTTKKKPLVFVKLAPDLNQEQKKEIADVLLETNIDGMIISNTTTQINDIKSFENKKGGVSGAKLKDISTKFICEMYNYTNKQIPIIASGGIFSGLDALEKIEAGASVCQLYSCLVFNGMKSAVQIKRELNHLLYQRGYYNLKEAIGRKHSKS
Description: Inhibition of Plasmodium falciparum C-terminal hexa-His tagged DHODH expressed in Escherichia coli by DCIP reduction assay

[2] = Inhibition of Plasmodium berghei C-terminal hexa-His tagged DHODH expressed in Escherichia coli by DCIP reduction assay
[3] = system: Plasmodium falciparum; experiment: Antimalarial activity against Plasmodium falciparum 3D7 by [3H]hypoxanthine incorporation assay in presence of human serum; assay type: functional, organism-based
[4] = target: Dihydroorotate dehydrogenase (quinone), mitochondrial (Homo sapiens, UniProt Q02127)
Chain of Dihydroorotate dehydrogenase (quinone), mitochondrial (Q02127 whole entry): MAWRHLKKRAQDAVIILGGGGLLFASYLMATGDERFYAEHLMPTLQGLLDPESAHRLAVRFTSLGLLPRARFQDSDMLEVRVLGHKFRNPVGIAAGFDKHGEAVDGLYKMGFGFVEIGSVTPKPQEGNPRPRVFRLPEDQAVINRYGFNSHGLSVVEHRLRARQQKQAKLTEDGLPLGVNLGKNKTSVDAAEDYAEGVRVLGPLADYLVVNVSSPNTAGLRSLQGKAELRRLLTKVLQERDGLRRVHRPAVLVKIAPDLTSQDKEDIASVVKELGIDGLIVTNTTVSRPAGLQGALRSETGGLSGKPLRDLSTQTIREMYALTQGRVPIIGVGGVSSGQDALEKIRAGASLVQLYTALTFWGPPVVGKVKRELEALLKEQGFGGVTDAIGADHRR
Description: Inhibition of human C-terminal hexa-His tagged DHODH expressed in Escherichia coli by DCIP reduction assay

[5] = system: Liver microsomes; experiment: Intrinsic clearance in human liver microsomes; assay type: ADME, Microsome
[6] = system: Liver; experiment: Intrinsic clearance in mouse liver microsomes; assay type: ADME, Microsome
[7] = Lipophilicity, log D of the compound at pH 7.4; assay type: physicochemical; conditions: buffer
[8] = Aqueous solubility of the compound at pH 6.5; assay type: physicochemical
[9] = system: Plasma; experiment: Plasma protein binding in human by chromatographic method; assay type: ADME, cell-free

Compound | IC50 [1] [nM] | EC50 [3] [nM] | other results
Cc1cc(Nc2cccc(Cl)c2)n2nc(CC3CC3)nc2n1 | > 10000 |  | 
CNCCOc1nc2nc(C)cc(Nc3ccc(S(F)(F)(F)(F)F)cc3)n2n1 | > 10000 |  | 
Cc1cc(Nc2ccc(Cl)cc2)n2nc(CC(C)C)nc2n1 | > 10000 |  | 
Cc1cc(Nc2cccc(Cl)c2)n2nc(CC(C)C)nc2n1 | > 10000 |  | 
Cc1cc(Nc2cccc(Cl)c2)n2nc(C(C)C)nc2n1 | 120 | 1100 | IC50 [2]: 570 nM
Cc1cc(Nc2ccc(C(F)(F)F)cc2)n2nc(C(C)C)nc2n1 | 110 | 98 | IC50 [2]: 4500 nM; IC50 [4]: > 100000 nM
Cc1cc(Nc2ccc(S(F)(F)(F)(F)F)cc2)n2nc(C(C)C)nc2n1 | 100 | 420 | IC50 [2]: 3800 nM; IC50 [4]: > 100000 nM
Cc1cc(Nc2ccc(C(F)(F)F)cc2)n2nc(CC(C)C)nc2n1 | 2000 |  | 
Cc1cc(Nc2ccc(S(F)(F)(F)(F)F)cc2)n2nc(CC(C)C)nc2n1 | > 10000 |  | 
Cc1cc(Nc2ccc(C(F)(F)F)cc2)n2nc(C(C)(C)C)nc2n1 | 460 | 290 | IC50 [2]: 15000 nM; IC50 [4]: > 100000 nM
Cc1cc(Nc2ccc(S(F)(F)(F)(F)F)cc2)n2nc(C(C)(C)C)nc2n1 | 550 | 2300 | IC50 [2]: 16000 nM; IC50 [4]: > 100000 nM
CCC(C)c1nc2nc(C)cc(Nc3ccc(C(F)(F)F)cc3)n2n1 (stereo not given) | 380 | 270 | IC50 [2]: 4600 nM; IC50 [4]: > 100000 nM
CCC(C)c1nc2nc(C)cc(Nc3ccc(S(F)(F)(F)(F)F)cc3)n2n1 (stereo not given) | 330 | 510 | IC50 [2]: 4500 nM; IC50 [4]: > 100000 nM
Cc1cc(Nc2ccc(Cl)cc2)n2nc(C3CC3)nc2n1 | 880 | 6800 | IC50 [2]: 2800 nM; IC50 [4]: > 100000 nM
Cc1cc(Nc2cccc(Cl)c2)n2nc(C3CC3)nc2n1 | 820 |  | IC50 [2]: 1700 nM; IC50 [4]: > 100000 nM
Cc1cc(Nc2ccc(Cl)cc2)n2nc(CC3CC3)nc2n1 | 12000 |  | 
Cc1cc(Nc2ccc(C(F)(F)F)cc2)n2nc(CC3CC3)nc2n1 | 1700 | 3400 | 
Cc1cc(Nc2ccc(S(F)(F)(F)(F)F)cc2)n2nc(CC3CC3)nc2n1 | 5700 | > 10000 | 
CCC(F)(F)c1nc2nc(C)cc(Nc3ccc(Cl)cc3)n2n1 | 34 | 94 | IC50 [2]: 1800 nM; IC50 [4]: > 100000 nM
CCC(F)(F)c1nc2nc(C)cc(Nc3cccc(Cl)c3)n2n1 | 30 | 1200 | IC50 [2]: 1400 nM; IC50 [4]: > 100000 nM
Cc1cc(Nc2ccc(C(F)(F)F)cc2)n2nc(C(F)(F)F)nc2n1 | 35 | 73 | Intrinsic clearance [5]: < 5 µL/min/mg; Intrinsic clearance [6]: < 6 µL/min/mg; IC50 [2]: 1300 nM; IC50 [4]: > 100000 nM
Cc1cc(Nc2ccc(S(F)(F)(F)(F)F)cc2)n2nc(C(F)(F)F)nc2n1 | 30 | 140 | Intrinsic clearance [5]: < 5 µL/min/mg; Intrinsic clearance [6]: < 6 µL/min/mg; IC50 [2]: 2500 nM; logD [7]: 3.7; solubility [8]: 30 µM (≈ 12.6 µg/mL)

Compound | IC50 [1] [nM] | EC50 [3] [nM] | other results
COCc1nc2nc(C)cc(Nc3ccc(Cl)cc3)n2n1 | 2200 |  | 
COCc1nc2nc(C)cc(Nc3cccc(Cl)c3)n2n1 | 1700 |  | 
COCCc1nc2nc(C)cc(Nc3ccc(Cl)cc3)n2n1 | > 10000 |  | 
COCCc1nc2nc(C)cc(Nc3cccc(Cl)c3)n2n1 | > 10000 |  | 
COCCc1nc2nc(C)cc(Nc3ccc(S(F)(F)(F)(F)F)cc3)n2n1 | 2500 | 5000 | PPB [9]: 87.7%; Intrinsic clearance [5]: 11.5 µL/min/mg; Intrinsic clearance [6]: 14.1 µL/min/mg; logD [7]: 3; solubility [8]: 31 µM (≈ 12.7 µg/mL)
CSc1nc2nc(C)cc(Nc3ccc(Cl)cc3)n2n1 | 30 | 150 | 
CSc1nc2nc(C)cc(Nc3cccc(Cl)c3)n2n1 | 26 | 150 | 
Cc1cc(Nc2ccc(Cl)cc2)n2nc(S(C)(=O)=O)nc2n1 | 45 | 1400 | 
Cc1cc(Nc2cccc(Cl)c2)n2nc(S(C)(=O)=O)nc2n1 | 160 | > 2500 | 
Cc1cc(Nc2ccc(C(F)(F)F)cc2)n2nc(S(C)(=O)=O)nc2n1 | 90 | 170 | 
Cc1cc(Nc2ccc(S(F)(F)(F)(F)F)cc2)n2nc(S(C)(=O)=O)nc2n1 | 110 | 2000 | 
COc1nc2nc(C)cc(Nc3cccc(Cl)c3)n2n1 |  | 980 | IC50 [2]: 1300 nM
COc1nc2nc(C)cc(Nc3ccc(Cl)cc3)n2n1 | 460 | 590 | IC50 [2]: 1200 nM
CCOc1nc2nc(C)cc(Nc3cccc(Cl)c3)n2n1 | 400 | 4400 | IC50 [2]: 1900 nM; IC50 [4]: > 100000 nM
CCOc1nc2nc(C)cc(Nc3ccc(Cl)cc3)n2n1 | 270 | 1300 | IC50 [2]: 1600 nM; IC50 [4]: > 100000 nM
COCCOc1nc2nc(C)cc(Nc3ccc(Cl)cc3)n2n1 | > 10000 |  | 
COCCOc1nc2nc(C)cc(Nc3cccc(Cl)c3)n2n1 | 4900 |  | IC50 [2]: > 10000 nM
CNCCOc1nc2nc(C)cc(Nc3ccc(Cl)cc3)n2n1 | > 10000 |  | 
CNCCOc1nc2nc(C)cc(Nc3cccc(Cl)c3)n2n1 | > 10000 |  | 
CNCCOc1nc2nc(C)cc(Nc3ccc(C(F)(F)F)cc3)n2n1 | > 10000 |  | 
Cc1cc(Nc2ccc(Cl)cc2)n2nc(OCCN(C)C)nc2n1 | > 10000 |  | 
Cc1cc(Nc2cccc(Cl)c2)n2nc(OCCN(C)C)nc2n1 | > 10000 |  | 

Compound | IC50 [1] [nM] | EC50 [3] [nM] | other results
Cc1cc(Nc2ccc(C(F)(F)F)cc2)n2nc(OCCN(C)C)nc2n1 | > 10000 |  | 
Cc1cc(Nc2ccc(S(F)(F)(F)(F)F)cc2)n2nc(OCCN(C)C)nc2n1 | > 10000 |  | 
Cc1cc(Nc2cccc(Cl)c2)n2nc(OCCN)nc2n1 | > 10000 |  | 
Cc1cc(Nc2ccc(C(F)(F)F)cc2)n2nc(OCCN)nc2n1 | > 10000 |  | 
Cc1cc(Nc2ccc(Cl)cc2)n2nc(OCCN)nc2n1 | > 10000 |  | 
Cc1cc(Nc2ccc(Cl)cc2)n2[nH]c(=O)nc2n1 | > 10000 |  | 
Cc1cc(Nc2cccc(Cl)c2)n2[nH]c(=O)nc2n1 | > 10000 |  | 
CNCCc1nc2nc(C)cc(Nc3ccc(Cl)cc3)n2n1 | > 10000 | > 2500 | 
Cc1cc(Nc2ccc(Cl)cc2)n2nc(CN)nc2n1 | > 10000 |  | 
CNCc1nc2nc(C)cc(Nc3ccc(Cl)cc3)n2n1 | > 10000 |  | 
Cc1cc(Nc2ccc(Cl)cc2)n2nc(CN(C)C)nc2n1 | > 10000 |  | 
CNCCc1nc2nc(C)cc(Nc3cccc(Cl)c3)n2n1 | > 10000 | > 2500 | 
Cc1cc(Nc2cccc(Cl)c2)n2nc(CN(C)C)nc2n1 | > 10000 |  | 
Cc1cc(Nc2cccc(Cl)c2)n2nc(CN)nc2n1 | > 10000 |  | 
CNCc1nc2nc(C)cc(Nc3cccc(Cl)c3)n2n1 | > 10000 |  | 
Cc1cc(Nc2ccc(Cl)cc2)n2nc(CCN)nc2n1 | > 10000 |  | 
Cc1cc(Nc2ccc(Cl)cc2)n2nc(CO)nc2n1 | 5300 | > 2500 | 
Cc1cc(Nc2cccc(Cl)c2)n2nc(CO)nc2n1 | 6100 | > 10000 | 
Cc1cc(Nc2ccc(C(F)(F)F)cc2)n2nc(CCO)nc2n1 | 930 | 480 | PPB [9]: 67%; Intrinsic clearance [5]: < 5 µL/min/mg; Intrinsic clearance [6]: 6.9 µL/min/mg; logD [7]: 2.2; solubility [8]: 19 µM (≈ 6.41 µg/mL)
Cc1cc(Nc2cccc(Cl)c2)n2ncnc2n1 |  |  | logD [7]: 2.4
